Reference: US6479520B1, “Method of treating a patient having precancerous lesions with phenyl pyridinone derivatives” (Cell Pathways, Inc., priority 1995, dated 2002)

| melting point [°C] | SMILES |
| --- | --- |
| 196 to 197 | CCCOc1cc(SC)ccc1-c1ccc(C#N)c(=O)[nH]1 [2(a), 3-Cyano-6-(4-methylthio-2-propoxyphenyl)-2(1H)-pyridinone] |
| 183 to 183.5 | CCCOc1cc(OC)ccc1-c1ccc(C#N)c(=O)[nH]1 [9(a), 3-Cyano-6-(4-methoxy-2-propoxyphenyl)-2(1H)-pyridinone] |
